Source: article PMC10788937, “Chemical Catalysis Guides Structural Identification for the Major In Vivo Metabolite of the BET Inhibitor JQ1” (ACS Medicinal Chemistry Letters, 2024)

Columns and labels:
in vitro = test: in vitro
Description: (§1) The samples are collected at specific time-points (0, 5, 10, 20, 40, and 60 min. The reactions are terminated by adding equivalent volume of ice-cold MeOH and vortexed. The reaction mixtures are centrifuged at rcf 15,000 for 15 min. Five μL of the supernatant will be analyzed by UHPLC-Q Exactive Orbitrap MS (Thermo Fisher Scientific, San Jose, CA) equipped with 50 mm × 4.6 mm column (XDB C-18, Agilent Technologies, Santa Clara, CA). The column temperature is maintained at 40 °C. The flow rate of is at 0.3 mL/min with a 30% mobile phase (acetonitrile containing 0.1% formic acid). Q Exactive MS is operated in positive or negative mode with electrospray ionization. Ultrapure nitrogen is applied as the sheath (45 arbitrary unit), auxiliary (10 arbitrary unit), sweep (1.0 arbitrary unit) and the collision gas. The capillary gas temperature is set at 275 °C and the capillary voltage was set at 3.7 kV. MS data were acquired from 80 to 1200 Da in […]
(§2) The Surface Plasmon Resonance (SPR) experiment was conducted using a Pioneer FE SPR System (Sartorius) equipped with a SPR HisCap Sensor
(§3) Chip. The instrument was calibrated and validated prior to the experiment according to the manufacturer's instructions. The chip surface was activated with a mixture of N-hydroxysuccinimide (NHS), 50 mM, and N-ethyl-N'-(3-dimethylaminopropyl) carbodiimide (EDC), 200 mM, at a 20 µL/min flow rate for 5. minutes. Covalent attachment of his-BRDT to channel 1 was achieved by injecting 150 µL of protein at 10 mg/mL at […]. Channel 2 of the chip was used as a blank reference and unreacted functional groups of both channels were blocked using ethanolamine.
(§4) SPR running buffer consisted of 100 mM Tris-HCl, 200 mM NaCl, and 0.05% Tween-20. […]
(§5) closely mimics the buffer conditions and injected at 40µL/min using the OneStep injection system at 0.5, 5, and 50 µM concentrations. The real-

[1] = Pharmacokinetic studies in mice (1:1 mixture, intraperitoneal); format: in vivo, mice (C57BL/6NJ); settings: for AUC(0-t) / CL/F / half-life at 24 h: C57BL/6NJ, mouse, plasma, ip, 50 mg/kg 1:1 mixture, intraperitoneal
Text: The observed improvement in male mice was not determined to be significant, but the gender differences are not unprecedented in human drug metabolism, as the clearance of CYP3A substrates occurs more rapidly by females than males.[35] Gender differences in hepatic CYP expression have been identified in mice, rats, and humans,[36] including a female-specific CYP3A family member in mice,[37] and circadian variations in mice can accentuate the sex differences in CYP3A isoform expression.[38] […] It is noteworthy that the relationship between AUC and half-life can be affected with no correlation due to influence on both by various factors such as target-mediated drug disposition, drug formulation, route of administration, metabolism, absorption, and elimination pathways.[39],[40] AUC0–t represents the cumulative effect, while t1/2 represents only the rate at which the drug is eliminated from the body. […]
time binding response was recorded using the instrument software and sensorgrams were analyzed using the QDAT software. The baseline subtraction, referencing, and double-referencing techniques were applied to obtain specific binding responses. Kinetic parameters were calculated by fitting sensograms to OneStep binding models for determining the dissociation rate constant (kd) for the highest concentration and constraining the lower concentrations to the determined value. All data was locally fitted to a simple 1:1 interaction model.
Pharmacokinetic studies in mice
Mouse studies were performed under protocols approved by the Institutional Animal Care and Use Committee of Baylor College of Medicine and guidelines established by the NIH Guide for the Care and Use of Laboratory Animals. Animals were housed under standard conditions of a 12-hour light/dark cycle in a vivarium with controlled ambient temperature (70˚ ± 2˚ and 20-70% relative humidity). Pharmacokinetic studies were performed using 8-12-week-old mice (C57BL/6NJ, female, n =4 and male n = 4)). Mice were administered 50 mg/kg of compounds (1:1 of mixtures of (+)-JQ1 and (+)-JQ1-D) via intraperitoneal injection to mice. Twenty µl of blood was collected via the tail vein at 0, 15, 30 minutes, 1, 2, 4, 8, and 24 hours post treatment. To 10 ul of plasma was added 25 ul of MeOH with internal standard. The resulting mixtures were vortexed and span at rcf 15,000 for 15 min and 5 ul of the supernatant were injected into the UHPLC-Q Exactive Orbitrap MS for analysis. The concentrations of tested compounds were calculated based on their corresponding standard curves. Pharmacokinetic parameters including half-time (t1/2), area under the plasma concentration–time curve during the period of observation (AUC0–t), clearance normalized by bioavailability (CL/F) were calculated on WinNonlin software (Certara, Princeton, NJ) by noncompartmental analysis.

BRD4 = settings: read-out: BRD4 IC50; ALPHAScreen, biotin-tagged (+)-JQ1 probe
[2] = cited from earlier work
BRDT = BRDT (Homo sapiens, UniProt Q58F21); format: binding; settings: SPR, his-BRDT; for Kd: read-out: BRDT binding Kd
Description: as §1, §2, §3, §4, §5

[3] = Isotopomeric ratios from the pharmacokinetic time course in mice; format: in vivo; settings: first time point

Compound | half-life at 1 h, 0.2 μM (in vitro; human, microsomes) | half-life at 1 h, 0.2 μM (in vitro; mouse, microsomes) | AUC(0-t) ([1]; female mice) | CL/F ([1]; female mice) | half-life at 24 h ([1]; female mice) | AUC(0-t) ([1]; male mice) | CL/F ([1]; male mice) | half-life at 24 h ([1]; male mice) | IC50 (BRD4) | BRDT binding Kd (BRDT) | Kd (BRDT) | further results
Cc1sc2c(c1C)C(c1ccc(Cl)cc1)=N[C@@H](CC(=O)OC(C)(C)C)c1nnc(C)n1-2 [(+)-JQ1, reference compound] | […] | […] | […] | […] | 116 min | […] | […] | 202 min | […] |  |  | half-life at 0.2 μM (in vitro; human, microsomes): 7.9 min; in vivo half-life [2]: about an hour
[2H]C([2H])([2H])c1sc2c(c1C)C(c1ccc(Cl)cc1)=N[C@@H](CC(=O)OC(C)(C)C)c1nnc(C)n1-2 [(+)-JQ1-D] | 22.5 min | 19.8 min | […] | 16.5 mL/min/kg | […] | 94200 ng·h/mL | […] | […] | […] |  |  | improvement of total exposure (AUC0–t) compared to (+)-JQ1 ([1]; female mice): 23%; improvement of total exposure (AUC0–t) compared to (+)-JQ1 ([1]; male mice): […]
Cc1c(CF)sc2c1C(c1ccc(Cl)cc1)=N[C@@H](CC(=O)OC(C)(C)C)c1nnc(C)n1-2 [(+)-JQ1-F1] | 52 min |  |  |  |  |  |  |  |  | lost potency | 0.722 µM | 
Cc1c(C(F)F)sc2c1C(c1ccc(Cl)cc1)=N[C@@H](CC(=O)OC(C)(C)C)c1nnc(C)n1-2 [(+)-JQ1-F2] | 125 min |  |  |  |  |  |  |  |  | lost potency | 3.92 µM | Human liver microsomal t1/2 (in vitro; 0.1 mg/mL microsomal protein): substantially improved half-life
Cc1c(CO)sc2c1C(c1ccc(Cl)cc1)=N[C@@H](CC(=O)OC(C)(C)C)c1nnc(C)n1-2 [M1] |  |  |  |  |  |  |  |  |  |  |  | M1/M1D ratio ([3]; female mice): 2.095 ± 0.089; M1/M1D ratio ([3]; male mice): 1.799 ± 0.043
